Data from BindingDB's records for doi:10.1074/jbc.M701813200 (Jacobus Pharmaceutical, 2007).

Biological target: T1, Enoyl-ACP reductase (Plasmodium falciparum, UniProt Q9BJJ9)
T1 sequence (Q9BJJ9 whole entry): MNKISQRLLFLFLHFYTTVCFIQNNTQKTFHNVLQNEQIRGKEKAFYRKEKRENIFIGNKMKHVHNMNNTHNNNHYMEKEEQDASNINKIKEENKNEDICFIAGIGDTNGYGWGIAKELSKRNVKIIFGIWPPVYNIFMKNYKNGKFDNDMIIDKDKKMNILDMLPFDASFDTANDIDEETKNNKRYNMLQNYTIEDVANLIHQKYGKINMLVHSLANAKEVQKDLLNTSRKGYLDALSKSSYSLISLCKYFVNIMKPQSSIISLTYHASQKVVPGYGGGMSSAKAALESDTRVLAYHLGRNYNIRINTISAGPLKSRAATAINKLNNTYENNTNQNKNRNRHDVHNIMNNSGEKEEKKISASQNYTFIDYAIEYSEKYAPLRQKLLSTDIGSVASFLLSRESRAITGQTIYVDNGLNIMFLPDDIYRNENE
Assay: PfENR Enzymatic Inhibition Assay
Settings: pH 7.9; 25 °C
Method: PfENR inhibition assays were carried out on a Cary 100 Bio Spectrophotometer or POLARstar Optima by monitoring oxidation of NADH at 340 nm. The IC50 was determined from a dose-response plot of enzyme fractional activity as a function of inhibitor concentration.

SMILES | IC50 [µM]
Oc1cc(Cl)ccc1Oc1ccc(Cl)cc1Cl | 0.073
Oc1cc(-c2nn[nH]n2)ccc1Oc1ccc(Cl)cc1Cl [2-(2,4-dichlorophenoxy)-5-(2H-1,2,3,4-tetrazol-5-yl)phenol] | > 100
O=C(O)c1ccc(Oc2ccc(Cl)cc2Cl)c(O)c1 [4-(2,4-dichlorophenoxy)-3-hydroxybenzoic acid] | > 100
